Experimental data from the RepoRT retention time repository.

assay: HILIC, Waters ACQUITY UPLC BEH Amide, 100 × 2.1 mm, 1.7 µm; A: water + 0.125% formic acid + 10 mM ammonium formate; B: 5% water + 95% acetonitrile + 0.125% formic acid + 10 mM ammonium formate; gradient (min/%B) 0/100 2/100 7.7/70 9.5/40 10.25/30 12.75/100 17/100; conditions: stereoisomer not certain

First: Cn1c(=O)ccn(C2OC(CO)C(O)C2O)c1=O (stereo not given) [3-Methyluridine]
Second: CN1C2CC(OC(=O)C(CO)c3ccccc3)CC1C1OC12 (stereo not given) [Scopolamine]
The LC retention time of the first is 3.3-fold lower: 1.12 min for the first, 3.75 min for the second.

Going from `COc1cc(N)c(Cl)cc1C(=O)NC1CCN(CCCOc2ccc(F)cc2)CC1OC` (stereo not given) [Cisapride] to `COc1ccc(C(=O)NCc2ccc(OCCN(C)C)cc2)cc1OC` [Itopride], the LC retention time rises from 2.28 min to 3.65 min (1.6-fold).

Going from `O=C(O)C(O)c1ccc(O)c(O)c1` (stereo not given) [3,4-Dihydroxymandelic acid] to `CC(=O)NC(C)C(=O)O` (stereo not given) [N-Acetylalanine], the LC retention time rises from 2.3 min to 4.83 min (2.1-fold).

Going from `CC1COc2c(C3(N)CC3)c(F)cc3c(=O)c(C(=O)O)cn1c23` (stereo not given) [Pazufloxacin] to `CC(C)C1=CC2=CCC3C(C)(C(=O)O)CCCC3(C)C2CC1` (stereo not given) [Abietic acid], the LC retention time falls from 2.49 min to 1.11 min (2.2-fold).

Compared with `CN(CCO)CC(O)Cn1cnc2c1c(=O)n(C)c(=O)n2C` (stereo not given) [Xanthinol], `Cn1c(=O)[nH]c2ncn(C)c2c1=O` [1,7-Dimethylxanthine] is 3.6-fold lower in LC retention time: 6.01 min for the first, 1.69 min for the second.

Going from `CN(C)CCCSc1ccccc1NC(=O)C=Cc1ccccc1` [Cinanserin] to `NC(=O)N1c2ccccc2C=Cc2ccccc21` [Carbamazepine], the LC retention time falls from 2.61 min to 1.21 min (2.2-fold).

Going from `CC1(C)OC2COC3(COS(N)(=O)=O)OC(C)(C)OC3C2O1` (stereo not given) [Topiramate] to `CC(=O)OCC[C@H](N)C(=O)O` [O-Acetyl-L-homoserine], the LC retention time rises from 1.1 min to 7.6 min (6.9-fold).

First: NC(C(=O)NC1C(=O)N2C(C(=O)O)=C(CSc3cn[nH]n3)CSC12)c1ccc(O)cc1 (stereo not given) [Cefatrizine]
Second: CCN(CC)CC1CCCCN1CC(=O)N1c2ccccc2C(=O)Nc2cccnc21 (stereo not given) [Otenzepad]
The LC retention time of the first is 2.7-fold higher: 7.98 min for the first, 2.94 min for the second.

`NC(=O)CCC(NC(=O)C(N)CCC(=O)O)C(=O)O` (stereo not given) [Glu-Gln] and `NC(CCS)C(=O)O` (stereo not given) [Homocysteine] are within 1.5-fold of each other in LC retention time: 9.6 min for the first, 9.58 min for the second.

Compared with `O=C1CC2(CCCC2)CC(=O)N1CCNCC1COc2ccccc2O1` (stereo not given) [Binospirone], `CN1C(=O)CN=C(c2ccccc2)c2cc([N+](=O)[O-])ccc21` [Nimetazepam] is 1.8-fold lower in LC retention time: 1.8 min for the first, 0.98 min for the second.

Going from `CC(CO)CCNc1ncnc2nc[nH]c12` (stereo not given) [Dihydrozeatin] to `COc1ccc(NC=O)c(C(=O)CCNC(C)=O)c1` [N-gamma-Acetyl-N-2-formyl-5-methoxykynurenamine], the LC retention time falls from 2.99 min to 1.32 min (2.3-fold).

Going from `COC(=O)CC(O)(CCCC(C)(C)O)C(=O)OC1C(OC)=CC23CCCN2CCc2cc4c(cc2C13)OCO4` (stereo not given) [Homoharringtonine] to `CC#CC1(O)CCC2C3CCC4=CC(=O)CCC4=C3C(c3ccc(N(C)C)cc3)CC21C` (stereo not given) [Mifepristone], the LC retention time falls from 3.24 min to 1 min (3.2-fold).

Going from `C=Cc1ccccc1` [Styrene] to `Clc1ccc2c(c1)CCc1cccnc1C2=C1CCNCC1` [Desloratadine], the LC retention time falls from 8.74 min to 4.9 min (1.8-fold).

Going from `CCCCCCCCCCCCCCCC(O)C(N)CO` (stereo not given) [Dihydrosphingosine] to `CC(C)CC(NC(=O)C(COC(C)(C)C)NC(=O)C(Cc1ccc(O)cc1)NC(=O)C(CO)NC(=O)C(Cc1c[nH]c2ccccc12)NC(=O)C(Cc1cnc[nH]1)NC(=O)C1CCC(=O)N1)C(=O)NC(CCCN=C(N)N)C(=O)N1CCCC1C(=O)NNC(N)=O` (stereo not given) [Goserelin], the LC retention time rises from 4.47 min to 7.83 min (1.8-fold).

First: CNC(C)C(=O)O (stereo not given) [N-Methylalanine]
Second: Cn1c(=O)[nH]c2[nH]c(=O)[nH]c2c1=O [1-Methyluric acid]
The LC retention time of the first is 3.5-fold higher: 7.67 min for the first, 2.18 min for the second.
